Results taken from patent publication US12391641B2, “Prostaglandin EP4 receptor antagonist compounds” (NXERA PHARMA UK LIMITED, priority 2019, dated 2025).

These compounds were tested against T1, Human prostaglandin E2 receptor 4 (EP4) (Homo sapiens, UniProt P35408) (assay: cAMP Gs Functional Assay (HTRF cAMP dynamic-2), antagonism of PGE2). Conditions: HEK293 cells transfected with EP4 BacMam virus; PGE2 challenge at EC80 (7 nM); pIC50 converted to functional pKb with a modified Cheng Prussoff equation; read-out: Human EP4 fpKb (converted).
T1 construct: expressed in transfected cells; host or cells: HEK293 cells transduced with EP4 BacMam virus
T1 sequence (P35408 whole entry): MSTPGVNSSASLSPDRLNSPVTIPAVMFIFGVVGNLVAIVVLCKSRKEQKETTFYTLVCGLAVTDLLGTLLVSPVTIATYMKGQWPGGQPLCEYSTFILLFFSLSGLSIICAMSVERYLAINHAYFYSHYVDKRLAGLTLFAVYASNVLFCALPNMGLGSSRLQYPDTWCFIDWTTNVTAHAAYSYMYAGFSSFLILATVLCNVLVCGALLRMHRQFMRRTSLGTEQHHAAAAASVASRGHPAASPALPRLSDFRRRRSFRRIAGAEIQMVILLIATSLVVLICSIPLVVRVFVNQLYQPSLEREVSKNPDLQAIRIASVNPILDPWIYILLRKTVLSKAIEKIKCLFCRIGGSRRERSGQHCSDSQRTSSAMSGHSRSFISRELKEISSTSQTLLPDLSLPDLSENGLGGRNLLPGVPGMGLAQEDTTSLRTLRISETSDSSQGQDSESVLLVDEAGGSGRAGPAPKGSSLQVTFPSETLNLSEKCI
Type: cell-based
Description: Cloning, Baculovirus generation, large scale infection of HEK293 cells and membrane preparation: Human prostaglandin E2 receptor 4 (EP4) was cloned into pBacMam expression vector (GeneScript, UK). Transposition of EP4 DNA was performed using Invitrogen's Bac-to-Bac Baculovirus Expression Systems. P0 baculovirus was generated by transfecting SF9 Cells with bacmid DNA using Cellfectin II transfection reagent (ThermoFisher Scientific, UK, catalog number 10362-100). Following P0 generation P1 virus was then generated ready for large scale infection and membrane preparation. HEK293 cells were grown in DMEM+Glutamax, supplemented with 10% heat inactivated fetal bovine serum (FBS). Cells were infected at a seeding density of 3.5 million cells/mL in 500 cm^3 flasks at 5% v/v EP4 Bacman. Expression was carried out over 36 hr period at 37° C. with 5% CO2. The cells were removed using PBS and a cell scrapper. The cell culture was centrifuged at 2500 RPM for 10 mins at 4° C. The supernatant was then poured off and the pellet stored at −80° C. The pellet was defrosted and re-suspended in 15 mL of homogenising buffer (20 mM HEPES, 10 mM EDTA, pH 7.4). Then homogenised in mechanical homogeniser (VMR) for 10 seconds. The membrane was centrifuged in centrifuge tubes at 40,000 g for 15 mins at 4° C. The supernatant was poured away and re-suspended in 15 mL of homogenising buffer. Homogenised for 20 seconds. The membrane was centrifuged at 40,000 g for 45 mins at 4° C. The membrane was re-suspended in 3 mL of storage buffer (20 mM HEPES, 0.1 mM EDTA, pH 7.4) mixing well. The resulting membranes were then stored at −80° C.
cAMP Gs Functional Assay: cAMP production following EP4 receptor activation was determined using the Homogeneous Time-Resolved Fluorescence (HTRF) cAMP dynamic-2 assay (Cisbio, France). HEK293 cells were transfected using a 0.5% EP4 Bacman virus for 36 hours, before dissociating the cells, and freezing at […].
On the day of testing, increasing concentration of test compounds, alongside positive controls (1 uM ONO-AE3-208) and negative control (DMSO (Sigma-Aldrich, UK) were added to a ProxiPlate-384 Plus, White 384-shallow well Mircoplate, (PerkinElmer, USA) using the ECHO dispense.
Cells were defrosted in a water bath and resuspended in DMEM supplemented with 10% FBS before centrifuging at 1200 RPM for 5 mins to form a pellet. The pellet was resuspended in assay buffer (DMEM+0.5 mM IBMX (Tocris, Abingdon, UK, Catalog Number 2845)) to a 1×10^6 cells/mL. Cell suspension, for a final assay concentration of 5000 cell/well was added using the multidrop to the pre-dispensed assay plate. The plate was then incubated at 37° C. for 30 mins, with 5% CO2. After incubation, EC80 concentration (7 nM) of PGE2 (EP4 agonist) was added to the plate. In parallel, a PGE2 dose-response curve was dispense to a separate plate. Assay buffer was then dispensed on top. The cAMP production was determined as manufacturer's instructions, before plates were read on a PheraStar fluorescence plate reader (BMG LabTech, Germany).
The pIC50 was converted to a functional pKb value using a modified Cheng Prussoff equation where Kd=agonist EC50 and Lhot=agonist challenge concentration;
Work on COc1cccc(COC(C(=O)N[C@@H](C)c2ccc(C(=O)O)cc2)C(C)C)c1 (mixture of isomers) [Example 3, 4-((1S)-1-(2-((3-methoxybenzyl)oxy)-3-methylbutanamido)ethyl)benzoic acid] yielded a Ki of over 67.6 nM.
Compound COc1ccc(COC(C(=O)N[C@@H](C)c2ccc(C(=O)O)cc2)C(C)C)cc1 (mixture of isomers) [Example 6, 4-((1S)-1-(2-((4-methoxybenzyl)oxy)-3-methylbutanamido)ethyl)benzoic acid] has a Ki of 28.2 nM.
CC(O[C@@H](C(=O)N[C@@H](C)c1ccc(C(=O)O)cc1)C(C)C)c1ccc(F)cc1 (mixture of isomers) [Example 46, 4-((1 S)-1-((2R)-2-(1-(4-fluorophenyl)ethoxy)-3-methylbutanamido)ethyl)benzoic acid] showed a Ki of 7.24 nM.
Work on CC(C)C(OCc1ccc(C2COC2)cc1)C(=O)N[C@@H](C)c1ccc(C(=O)O)cc1 (mixture of isomers) [Example 47, 4-((1S)-1-(3-methyl-2-((4-(oxetan-3-yl)benzyl)oxy)butanamido)ethyl)benzoic acid] yielded a Ki of 64.6 nM.
CC(O[C@@H](C(=O)N[C@@H](C)c1ccc(C(=O)O)cc1)C(C)C)c1ccc(C(F)(F)F)cc1 (mixture of isomers) [Example 51, 4-((1S)-1-((2R)-3-methyl-2-(1-(4-(trifluoromethyl)phenyl)ethoxy)butanamido)ethyl)benzoic acid] showed a Ki of 417 nM.
With C[C@H](NC(=O)C(OCc1ccc(C(F)(F)F)cc1)C1CCC1)c1ccc(C(=O)O)cc1 (mixture of isomers) [Example 92, 4-((1S)-1-(2-cyclobutyl-2-((4-(trifluoromethyl)benzyl)oxy)acetamido)ethyl)benzoic acid] the Ki was 4.68 nM.
With CC(C)C(OCc1cccc(F)c1)C(=O)N[C@@H](C)c1ccc(C(=O)O)cc1 (single isomer, unassigned) [Example 17] the Ki was 3.02 nM.
CC(C)C(OCc1cccc(F)c1)C(=O)N[C@@H](C)c1ccc(C(=O)O)cc1 (single isomer, unassigned) [Example 18] was tested, and the Ki was 457 nM.
For CC(C)C(OCc1cccc(C2COC2)c1)C(=O)N[C@@H](C)c1ccc(C(=O)O)cc1 (single isomer, unassigned) [Example 48], the Ki was 141 nM.
In the case of CC(C)C(OCc1cccc(C2COC2)c1)C(=O)N[C@@H](C)c1ccc(C(=O)O)cc1 (single isomer, unassigned) [Example 49], the Ki is reported as 2.29 nM.
For CC(C)C(OCc1cccc(C2COC2)c1)C(=O)NC1(c2ccc(C(=O)O)cc2)CC1 (single isomer, unassigned) [Example 86, 4-(1-(3-methyl-2-((3-(oxetan-3-yl)benzyl)oxy)butanamido)cyclopropyl)benzoic acid], the Ki was 0.447 nM.
Compound CC(C)C(OCc1cccc(C2COC2)c1)C(=O)NC1(c2ccc(C(=O)O)cc2)CC1 (single isomer, unassigned) [Example 87, 4-(1-(3-methyl-2-((3-(oxetan-3-yl)benzyl)oxy)butanamido)cyclopropyl)benzoic acid] has a Ki of over 603 nM.
Work on C[C@H](NC(=O)C(OCc1ccc(C(F)(F)F)cc1)C1CCC1)c1ccc(C(=O)O)cc1 (single isomer, unassigned) [Example 93] yielded a Ki of 3.63 nM.
C[C@H](NC(=O)C(OCc1ccc(C(F)(F)F)cc1)C1CCC1)c1ccc(C(=O)O)cc1 (single isomer, unassigned) [Example 94] showed a Ki of 5.01 nM.
For CC(C)[C@@H](OCc1ccc(C(F)(F)F)cc1)C(=O)N[C@@H](C)c1ccc(C(=O)O)cc1 [Example 1, 4-((S)-1-((R)-3-methyl-2-((4-(trifluoromethyl)benzyl)oxy)butanamido)ethyl)benzoic acid], the Ki was 0.776 nM.
In the case of CC(C)[C@@H](OCc1ccc(C(F)(F)F)cc1)C(=O)NC1(c2ccc(C(=O)O)cc2)CC1 [Example 2, (R)-4-(1-(3-methyl-2-((4-(trifluoromethyl)benzyl)oxy)butanamido)cyclopropyl)benzoic acid], the Ki is reported as 0.891 nM.
Work on CC(C)[C@H](OCc1ccc(F)cc1)C(=O)N[C@@H](C)c1ccc(C(=O)O)cc1 [Example 4, 4-((S)-1-((S)-2-((4-fluorobenzyl)oxy)-3-methylbutanamido)ethyl)benzoic acid] yielded a Ki of over 195 nM.
Compound CC(C)[C@@H](OCc1ccc(F)cc1)C(=O)N[C@@H](C)c1ccc(C(=O)O)cc1 [Example 5, 4-((S)-1-((R)-2-((4-fluorobenzyl)oxy)-3-methylbutanamido)ethyl)benzoic acid] has a Ki of 4.17 nM.
CC(C)[C@H](OCc1cccc(S(C)(=O)=O)c1)C(=O)N[C@@H](C)c1ccc(C(=O)O)cc1 [Example 7, 4-((S)-1-((S)-3-methyl-2-((3-(methylsulfonyl)benzyl)oxy)butanamido)ethyl)benzoic acid] gave a Ki of over 195 nM.
Work on CC(C)[C@@H](OCc1cccc(S(C)(=O)=O)c1)C(=O)N[C@@H](C)c1ccc(C(=O)O)cc1 [Example 8, 4-((S)-1-((R)-3-methyl-2-((3-(methylsulfonyl)benzyl)oxy)butanamido)ethyl)benzoic acid] yielded a Ki of 8.71 nM.
With CC(C)[C@H](OCc1ccc(S(C)(=O)=O)cc1)C(=O)N[C@@H](C)c1ccc(C(=O)O)cc1 [Example 9, 4-((S)-1-((S)-3-methyl-2-((4-(methylsulfonyl)benzyl)oxy)butanamido)ethyl)benzoic acid] the Ki was over 195 nM.
For CC(C)[C@@H](OCc1ccc(S(C)(=O)=O)cc1)C(=O)N[C@@H](C)c1ccc(C(=O)O)cc1 [Example 10, 4-((S)-1-((R)-3-methyl-2-((4-(methylsulfonyl)benzyl)oxy)butanamido)ethyl)benzoic acid], the Ki was 20.4 nM.
CC(C)[C@@H](OCc1ccc(Cl)cc1)C(=O)N[C@@H](C)c1ccc(C(=O)O)cc1 [Example 11, 4-((S)-1-((R)-2-((4-chlorobenzyl)oxy)-3-methylbutanamido)ethyl)benzoic acid] gave a Ki of 3.16 nM.
In the case of CC(C)[C@@H](OCc1cccc(Cl)c1)C(=O)N[C@@H](C)c1ccc(C(=O)O)cc1 [Example 12, 4-((S)-1-((R)-2-((3-chlorobenzyl)oxy)-3-methylbutanamido)ethyl)benzoic acid], the Ki is reported as 0.813 nM.
Compound CC(C)[C@@H](OCc1ccc(C(F)F)cc1)C(=O)N[C@@H](C)c1ccc(C(=O)O)cc1 [Example 13, 4-((S)-1-((R)-2-((4-(difluoromethyl)benzyl)oxy)-3-methylbutanamido)ethyl)benzoic acid] has a Ki of 2.34 nM.
For CC(C)[C@@H](OCc1cccc(C(F)F)c1)C(=O)N[C@@H](C)c1ccc(C(=O)O)cc1 [Example 14, 4-((S)-1-((R)-2-((3-(difluoromethyl)benzyl)oxy)-3-methylbutanamido)ethyl)benzoic acid], the Ki was 1.82 nM.
With CC(C)[C@@H](OCc1cccc(C(F)(F)F)c1)C(=O)N[C@@H](C)c1ccc(C(=O)O)cc1 [Example 15, 4-((S)-1-((R)-3-methyl-2-((3-(trifluoromethyl)benzyl)oxy)butanamido)ethyl)benzoic acid] the Ki was 0.288 nM.
Compound CC(C)[C@H](OCc1ccc(C(F)(F)F)cc1)C(=O)N[C@@H](C)c1ccc(C(=O)O)cc1 [Example 16, 4-((S)-1-((S)-3-methyl-2-((4-(trifluoromethyl)benzyl)oxy)butanamido)ethyl)benzoic acid] has a Ki of 178 nM.
Work on CC(C)[C@@H](OCc1ccccc1)C(=O)N[C@@H](C)c1ccc(C(=O)O)cc1 [Example 19, 4-((S)-1-((R)-2-(benzyloxy)-3-methylbutanamido)ethyl)benzoic acid] yielded a Ki of 12.9 nM.
